Results as given in patent US20190240225A1, “COMBINATION OF A BCL-2 INHIBITOR AND A MCL-1 INHIBITOR, USES AND PHARMACEUTICAL COMPOSITIONS THEREOF” (LES LABORATOIRES SERVIER, priority 2016, published 2019).
Like-named read-outs stand apart in the source and are kept apart here.

How the values were obtained:
primary AML blasts = experiment: Cell viability (sytox blue, flow cytometry) of primary AML patient samples, LC50; assay type: cell-based, human; conditions: 54 primary AML samples; 48 h; RPMI/15% FCS; combination at 1:1
Experimental: Primary AML patient samples: Bone marrow or peripheral blood samples from patients with AML were collected after informed consent in accordance with guidelines approved by The Alfred Hospital Human research ethics committees. Mononuclear cells were isolated by Ficoll-Paque (GE Healthcare, VIC, Aus) density-gradient centrifugation, followed by red cell depletion in ammonium chloride (NH4Cl) lysis buffer at 37° C. for 10 minutes. Cells were then re-suspended in phosphate-buffered saline containing 2% Fetal Bovine serum (Sigma, NSW, Aus). Mononuclear cells were then suspended in RPMI-1640 (GIBCO VIC, Aus) medium containing penicillin and streptomycin (GIBCO) and heat inactivated fetal bovine serum 15% (Sigma).
Cell Viability: Freshly purified mononuclear cells from AML patient samples were adjusted to a concentration of 2.5×10^5/ml and 100 μL of cells aliquoted per well into 96 well plates (Sigma). […] For combinations assays, drugs were added at a 1:1 ratio from 1 nM to 10 μM and incubated at 37° C. 5% CO2. Cells were then stained with sytox blue nucleic acid stain (Invitrogen, VIC, Aus) and fluorescence measured by flow cytometric analysis using the LSR-II Fortessa (Becton Dickinson, NSW, Aus). FACSDiva software was used for data collection, and FlowJo software for analysis. Blast cells were gated using forward and side scatter properties. […]

MV4;11 AML cells = experiment: Luciferase MV4;11 AML engraftment model in NSG mice; assay type: in vivo, mouse; conditions: MV4;11-luciferase, Compound 1, HCl 100 mg/kg oral daily, Compound 2 25 mg/kg IV twice weekly, 4 weeks
Experimental: In vivo experimentation AML engraftment: Animal studies were performed under the institutional guidelines approved by the Alfred Medical Research and Education Precinct Animal Ethics Committee, MV4; 11 cells transduced with the luciferase reporter (pLUC2) were intravenously injected at 1×10^5 cells into irradiated (100 Rad) non-obese diabetic/severe combined immunodeficient (NOD/SCID/IL2rγnull) mice as previously described (Jin et al., Cell Stem Cell 2 Jul. 2009, Volume 5, Issue 1, Pages 31-42). Engraftment was measured at day 7 by quantifying the percentage of hCD45+ cells in the PB by flow cytometry and by IVIS imaging of bioluminescent MV4; 11 cells. At day 10, mice received daily oral gavage of Compound 1, HCl (200 μL 100mg/kg—dosage expressed as the free base) dissolved in PEG400 (Sigma), absolute ethanol (Sigma) and distilled H20 40:10:60 or Compound 2 (200 μL 25 mg/kg) twice weekly dissolved in 50% 2-hydroxypropyl)-β-cyclodextrin (Sigma) and 50% 50mM HCl or the drug combination or vehicle, over 4 weeks. Blood counts were determined using a hematology analyzer (BioRad, Gladesville, NSW). […]
To verify the in vivo activity of this approach, luciferase expressing MV4; 11 AML cells were engrafted into NSG mice and treated with Compound 1 (HCl salt) or Compound 2 alone, or in combination and tumour burden assessed after 14 and 21 days of therapy (FIG. 2B). […]

AMO1 = experiment: MTT cell viability assay, myeloma cell line; assay type: cell-based, human
Experimental: (§1) Cell lines: Human myeloma cell lines (HMCLs) were derived from primary myeloma cells cultured in RPMI 1640 medium supplemented with 5% fetal calf serum from and 3 ng/mL recombinant IL-6 for IL-6 dependent cell lines. HMCLs are representative of phenotypic and genomic heterogeneity and the variability in patient's response to therapy.
(§2) MTT assay: Cell viability is measured using MTT (3-(4,5-dimethylthiazol-2-yl)-2,5-diphenyltetrazolium bromide) colorimetric survival assay. Cells are incubated with compounds in 96-well plates containing a final volume of 100 μl/well time. (2R)-2-{[(5Sa)-5-{3-chloro-2-methyl-4-[2-(4-methylpiperazin-1-yl)ethoxy]phenyl}-6-(5-fluorofuran-2-yl)thieno[2,3-d]pyrimidin-4-yl]oxy}-3-(2-{[1-(2,2,2-trifluoroethyl)-1H-pyrazol-5-yl]methoxy}phenyl)propanoic acid (Compound 2) is used at 9 different concentrations accordingly to single agent sensitivity. N-(4-hydroxyphenyl)-3-{6-[((3S)-3-(4-morpholinylmethyl)-3,4-dihydro-2(1H)-isoquinolinyl)carbonyl]-1,3-benzodioxol-5-yl}-N-phenyl-5,6,7,8-tetrahydro-1-indolizine carboxamide hydrochloride (Compound 1, HCl) is used at a fixed dose—1 μM. At the end of each treatment, cells are incubated with 1 mg/mL MTT (50 μl MTT solution 2.5 mg/ml for each well) at 37° C. for 3 hours allowing the MTT to be metabolized. Lysis buffer (100 μl Lysis buffer: DMF (2:3)/SDS (1:3)) is added into each well to dissolve formazan cristals and after 18 h of incubation, absorbance in viable cells is measured at 570 nm using a spectrophotometer.
(§3) The sensitivity of 27 human multiple myeloma cell lines to Compound 1, Compound 2 or to Compound 2 in the presence of 1 μM of Compound 1 was analyzed by using MTT cell viability assay. 50% inhibitory concentrations (IC50, in nM) were determined.

ANBL6 = experiment: MTT cell viability assay, myeloma cell line; assay type: cell-based, human
Experimental: as §1, §2, §3

BCN = experiment: MTT cell viability assay, myeloma cell line; assay type: cell-based, human
Experimental: as §1, §2, §3

JIM3 = experiment: MTT cell viability assay, myeloma cell line; assay type: cell-based, human
Experimental: as §1, §2, §3

JJN3 = experiment: MTT cell viability assay, myeloma cell line; assay type: cell-based, human
Experimental: as §1, §2, §3

KMM1 = experiment: MTT cell viability assay, myeloma cell line; assay type: cell-based, human
Experimental: as §1, §2, §3

KMS11 = experiment: MTT cell viability assay, myeloma cell line; assay type: cell-based, human
Experimental: as §1, §2, §3

KMS12BM = experiment: MTT cell viability assay, myeloma cell line; assay type: cell-based, human
Experimental: as §1, §2, §3

L363 = experiment: MTT cell viability assay, myeloma cell line; assay type: cell-based, human
Experimental: as §1, §2, §3

LP1 = experiment: MTT cell viability assay, myeloma cell line; assay type: cell-based, human
Experimental: as §1, §2, §3

MM1S = experiment: MTT cell viability assay, myeloma cell line; assay type: cell-based, human
Experimental: as §1, §2, §3

NAN1 = experiment: MTT cell viability assay, myeloma cell line; assay type: cell-based, human
Experimental: as §1, §2, §3

NAN3 = experiment: MTT cell viability assay, myeloma cell line; assay type: cell-based, human; conditions: single agent
Experimental: as §1, §2, §3

NAN6 = experiment: MTT cell viability assay, myeloma cell line; assay type: cell-based, human
Experimental: as §1, §2, §3

NAN8 = experiment: MTT cell viability assay, myeloma cell line; assay type: cell-based, human
Experimental: as §1, §2, §3

NAN9 = experiment: MTT cell viability assay, myeloma cell line; assay type: cell-based, human
Experimental: as §1, §2, §3

NCI-H929 = experiment: MTT cell viability assay, myeloma cell line; assay type: cell-based, human
Experimental: as §1, §2, §3

OPM2 = experiment: MTT cell viability assay, myeloma cell line; assay type: cell-based, human
Experimental: as §1, §2, §3

RPMI8226 = experiment: MTT cell viability assay, myeloma cell line; assay type: cell-based, human
Experimental: as §1, §2, §3

SBN = experiment: MTT cell viability assay, myeloma cell line; assay type: cell-based, human
Experimental: as §1, §2, §3

U266 = experiment: MTT cell viability assay, myeloma cell line; assay type: cell-based, human
Experimental: as §1, §2, §3

XG11 = experiment: MTT cell viability assay, myeloma cell line; assay type: cell-based, human
Experimental: as §1, §2, §3

XG1 = experiment: MTT cell viability assay, myeloma cell line; assay type: cell-based, human
Experimental: as §1, §2, §3

XG2 = experiment: MTT cell viability assay, myeloma cell line; assay type: cell-based, human
Experimental: as §1, §2, §3

XG3 = experiment: MTT cell viability assay, myeloma cell line; assay type: cell-based, human
Experimental: as §1, §2, §3

XG6 = experiment: MTT cell viability assay, myeloma cell line; assay type: cell-based, human
Experimental: as §1, §2, §3

XG7 = experiment: MTT cell viability assay, myeloma cell line; assay type: cell-based, human
Experimental: as §1, §2, §3

[1] = + 1 μM Compound 1, HCl, read-out: IC50 of Compound 2 in the presence of 1 μM of Compound 1, HCl

Cc1c(-c2c(-c3ccc(F)o3)sc3ncnc(O[C@H](Cc4ccccc4OCc4ccnn4CC(F)(F)F)C(=O)O)c23)ccc(OCCN2CCN(C)CC2)c1Cl [Compound 2, (2R)-2-{[(5Sa)-5-{3-chloro-2-methyl-4-[2-(4-methylpiperazin-1-yl)ethoxy]phenyl}-6-(5-fluorofuran-2-yl)thieno[2,3-d]pyrimidin-4-yl]oxy}-3-(2-{[1-(2,2,2-trifluoroethyl)-1H-pyrazol-5-yl]methoxy}phenyl)propanoic acid]
proportion of primary AML samples highly sensitive (LC50<10 nM) (primary AML blasts): Approximately 20%
in vivo anti-leukaemic activity (luciferase tumour burden, survival) (MV4;11 AML cells): reduced luciferase bulk
IC50 (AMO1; [1]): 0.2 nM
IC50 (AMO1; single agent, read-out: IC50): 0.5 nM
IC50 (ANBL6; [1]): 20.8 nM
IC50 (ANBL6; single agent, read-out: IC50): 79.5 nM
IC50 (BCN; [1]): 59.3 nM
IC50 (BCN; single agent, read-out: IC50): 1110 nM
IC50 (JIM3; [1]): 25.9 nM
IC50 (JIM3; single agent, read-out: IC50): 56.3 nM
IC50 (JJN3; [1]): 2.4 nM
IC50 (JJN3; single agent, read-out: IC50): 15.6 nM
IC50 (KMM1; [1]): 8.6 nM
IC50 (KMM1; single agent, read-out: IC50): 57.8 nM
IC50 (KMS11; [1]): 3.9 nM
IC50 (KMS11; single agent, read-out: IC50): 44.1 nM
IC50 (KMS12BM; [1]): 0.03 nM
IC50 (KMS12BM; single agent, read-out: IC50): 44.1 nM
IC50 (L363; [1]): 3.4 nM
IC50 (L363; single agent, read-out: IC50): 7.6 nM
IC50 (LP1; [1]): 2.9 nM
IC50 (LP1; single agent, read-out: IC50): 158 nM
IC50 (MM1S; [1]): 23 nM
IC50 (MM1S; single agent, read-out: IC50): 138 nM
IC50 (NAN1; [1]): 1.4 nM
IC50 (NAN1; single agent, read-out: IC50): 5.7 nM
IC50 (NAN3): 1.5 nM
IC50 (NAN6; [1]): 1.8 nM
IC50 (NAN6; single agent, read-out: IC50): 7.1 nM
IC50 (NAN8; [1]): 32.5 nM
IC50 (NAN8; single agent, read-out: IC50): 75.4 nM
IC50 (NAN9; [1]): 1.1 nM
IC50 (NAN9; single agent, read-out: IC50): 9.7 nM
IC50 (NCI-H929; [1]): 1 nM
IC50 (NCI-H929; single agent, read-out: IC50): 2.3 nM
IC50 (OPM2; [1]): 1.2 nM
IC50 (OPM2; single agent, read-out: IC50): 9.4 nM
IC50 (RPMI8226; [1]): 3 nM
IC50 (RPMI8226; single agent, read-out: IC50): 27.4 nM
IC50 (SBN; [1]): 14.6 nM
IC50 (SBN; single agent, read-out: IC50): 221 nM
IC50 (U266; [1]): 14.9 nM
IC50 (U266; single agent, read-out: IC50): 170 nM
IC50 (XG11; [1]): 8.3 nM
IC50 (XG11; single agent, read-out: IC50): 375 nM
IC50 (XG1; [1]): 0.2 nM
IC50 (XG1; single agent, read-out: IC50): 5.9 nM
IC50 (XG2; [1]): 2.7 nM
IC50 (XG2; single agent, read-out: IC50): 6.4 nM
IC50 (XG3; [1]): 1.3 nM
IC50 (XG3; single agent, read-out: IC50): 6.1 nM
IC50 (XG6; [1]): 0.5 nM
IC50 (XG6; single agent, read-out: IC50): 19.2 nM
IC50 (XG7; [1]): 8 nM
IC50 (XG7; single agent, read-out: IC50): 16.3 nM
